ChEMBL document CHEMBL5665443, “Enzyme Inhibitor Single Concentration assay results for EUbOPEN Chemogenomics Library” (2024)
Where a SMILES comes first, the peptide text is derived from it. [ ]: non-standard residue; d: D form. Arg(Me) = CNC(=N)NCCC[C@H](N)C(=O)O; d4Pal = N[C@H](Cc1ccncc1)C(=O)O; azaGly = NNC(=O)O

Legend:
Details in all cases: Compound Concentration 10.0 uM, Hit No
[1] = molecular target: Methyl-CpG-binding domain protein 4 (Homo sapiens) (UniProt O95243);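 further: MBD4 activity read as fluorescence at 594 nm from cleavage and release of a quenched duplex DNA oligonucleotide, with APE1 coupled to incise the strand and raise turnover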
Chain of Methyl-CpG-binding domain protein 4 (Homo sapiens) (O95243 whole entry, the tested form may be a part): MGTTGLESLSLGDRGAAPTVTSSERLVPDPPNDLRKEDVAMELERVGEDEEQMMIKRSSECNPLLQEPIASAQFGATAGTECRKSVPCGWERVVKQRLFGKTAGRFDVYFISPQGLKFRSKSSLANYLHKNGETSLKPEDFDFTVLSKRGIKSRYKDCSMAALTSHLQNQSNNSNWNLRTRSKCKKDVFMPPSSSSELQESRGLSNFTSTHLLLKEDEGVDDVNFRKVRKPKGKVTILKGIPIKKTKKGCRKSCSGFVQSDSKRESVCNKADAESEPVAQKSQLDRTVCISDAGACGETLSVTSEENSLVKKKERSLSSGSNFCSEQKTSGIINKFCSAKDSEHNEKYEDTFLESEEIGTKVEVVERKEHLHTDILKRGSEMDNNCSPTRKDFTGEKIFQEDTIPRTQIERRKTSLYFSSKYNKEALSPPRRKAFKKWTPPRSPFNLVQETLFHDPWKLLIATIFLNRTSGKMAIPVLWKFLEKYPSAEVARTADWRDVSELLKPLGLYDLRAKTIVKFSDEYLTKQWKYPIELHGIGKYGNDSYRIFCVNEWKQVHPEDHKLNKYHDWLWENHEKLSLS
Description: Inhibition of MBD4 by quantifying inhibition of MBD4-mediated cleavage and dissociation of quenched duplex DNA oligonucleotides, measured as fluorescence at 594 nm. To generate a functional strand incision and increase turn-over this assay is coupled to APE1.

[2] = molecular target: Endonuclease 8-like 1 (Homo sapiens) (UniProt Q96FI4);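 further: fluorescence at 594 nm from quenched duplex DNA oligonucleotides released by NEIL1 cleavage and strand separation, reported as reduction of this enzyme activity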
Chain of Endonuclease 8-like 1 (Homo sapiens) (Q96FI4 whole entry): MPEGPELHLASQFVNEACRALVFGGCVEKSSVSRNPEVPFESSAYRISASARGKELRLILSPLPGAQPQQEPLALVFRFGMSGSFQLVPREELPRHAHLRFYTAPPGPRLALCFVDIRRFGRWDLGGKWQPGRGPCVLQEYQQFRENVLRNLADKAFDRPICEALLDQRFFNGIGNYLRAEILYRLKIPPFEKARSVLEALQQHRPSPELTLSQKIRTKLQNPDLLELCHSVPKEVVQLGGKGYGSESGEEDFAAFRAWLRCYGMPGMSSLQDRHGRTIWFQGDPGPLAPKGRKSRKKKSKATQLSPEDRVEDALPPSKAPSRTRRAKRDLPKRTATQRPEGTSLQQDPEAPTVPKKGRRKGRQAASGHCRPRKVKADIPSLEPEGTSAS
Description: Inhibition of NEIL1 by quantifying inhibition of NEIL1-mediated cleavage and dissociation of quenched duplex DNA oligonucleotides, measured as fluorescence at 594 nm.

[3] = molecular target: T1, Endonuclease 8-like 2 (Homo sapiens) (UniProt Q969S2);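 further: fluorescence at 594 nm reports NEIL2 cutting and release of a quenched double-stranded DNA oligo substrate, reduced signal read as inhibition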
T1 sequence (whole entry): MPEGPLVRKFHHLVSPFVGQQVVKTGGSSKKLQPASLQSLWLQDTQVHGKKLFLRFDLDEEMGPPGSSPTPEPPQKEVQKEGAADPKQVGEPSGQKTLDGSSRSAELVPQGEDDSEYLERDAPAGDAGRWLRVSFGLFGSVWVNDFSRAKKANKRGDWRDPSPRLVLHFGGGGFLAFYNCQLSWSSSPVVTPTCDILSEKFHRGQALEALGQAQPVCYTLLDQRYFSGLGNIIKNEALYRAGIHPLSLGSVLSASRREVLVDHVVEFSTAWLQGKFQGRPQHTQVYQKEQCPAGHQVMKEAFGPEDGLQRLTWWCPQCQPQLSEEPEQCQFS
Description: Inhibition of NEIL2 by quantifying inhibition of NEIL2-mediated cleavage and dissociation of quenched duplex DNA oligonucleotides, measured as fluorescence at 594 nm.

[4] = molecular target: T2, Endonuclease III-like protein 1 (Homo sapiens) (UniProt P78549);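 further: enzyme assay tracking NTHL1 cutting and release of a quenched double-stranded DNA oligo substrate, read as fluorescence at 594 nm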
T2 sequence (whole entry): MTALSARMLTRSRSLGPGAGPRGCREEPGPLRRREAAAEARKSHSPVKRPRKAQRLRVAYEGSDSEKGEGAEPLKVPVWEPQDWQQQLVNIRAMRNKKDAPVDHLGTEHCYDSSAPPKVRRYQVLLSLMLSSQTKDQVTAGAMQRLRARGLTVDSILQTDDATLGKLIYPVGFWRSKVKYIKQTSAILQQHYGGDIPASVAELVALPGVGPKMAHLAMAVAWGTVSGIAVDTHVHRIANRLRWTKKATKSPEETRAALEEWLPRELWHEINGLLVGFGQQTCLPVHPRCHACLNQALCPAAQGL
Description: Inhibition of NTHL1 by quantifying inhibition of NTHL1-mediated cleavage and dissociation of quenched duplex DNA oligonucleotides, measured as fluorescence at 594 nm.

[5] = molecular target: N-glycosylase/DNA lyase (Homo sapiens) (UniProt O15527);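 further: OGG1 cleavage of a quenched duplex DNA oligonucleotide, coupled to APE1 for strand incision, read as fluorescence at 594 nm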
Chain of N-glycosylase/DNA lyase (Homo sapiens) (O15527 whole entry): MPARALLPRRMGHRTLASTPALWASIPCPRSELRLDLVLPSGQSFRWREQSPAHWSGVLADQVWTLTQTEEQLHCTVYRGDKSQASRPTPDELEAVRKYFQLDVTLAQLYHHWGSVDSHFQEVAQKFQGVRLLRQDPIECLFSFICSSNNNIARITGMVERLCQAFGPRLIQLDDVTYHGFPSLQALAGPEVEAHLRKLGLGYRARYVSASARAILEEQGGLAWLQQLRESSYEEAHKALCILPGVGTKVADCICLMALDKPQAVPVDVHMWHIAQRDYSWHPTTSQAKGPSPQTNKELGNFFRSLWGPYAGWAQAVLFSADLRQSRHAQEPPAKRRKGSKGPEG
Description: Inhibition of OGG1 by quantifying inhibition of OGG1-mediated cleavage and dissociation of quenched duplex DNA oligonucleotides, measured as fluorescence at 594 nm. To generate a functional strand incision and increase turn-over this assay is coupled to APE1.

[6] = molecular target: T3, Single-strand selective monofunctional uracil DNA glycosylase (Homo sapiens) (UniProt Q53HV7);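 further: enzymatic SMUG1 assay coupled with APE1, reading fluorescence at 594 nm released when a quenched double-stranded DNA oligonucleotide substrate is cleaved and separated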
T3 sequence (whole entry): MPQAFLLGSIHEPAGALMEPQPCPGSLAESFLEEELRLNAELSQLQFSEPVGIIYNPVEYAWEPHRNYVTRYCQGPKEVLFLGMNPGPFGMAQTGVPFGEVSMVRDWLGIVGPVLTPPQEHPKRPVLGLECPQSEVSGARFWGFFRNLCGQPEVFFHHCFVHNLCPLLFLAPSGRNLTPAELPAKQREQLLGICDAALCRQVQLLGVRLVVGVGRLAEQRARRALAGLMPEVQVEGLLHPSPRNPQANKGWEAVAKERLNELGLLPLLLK
Description: Inhibition of SMUG1 by quantifying inhibition of SMUG1-mediated cleavage and dissociation of quenched duplex DNA oligonucleotides, measured as fluorescence at 594 nm. To generate a functional strand incision and increase turn-over this assay is coupled to APE1.

[7] = molecular target: G/T mismatch-specific thymine DNA glycosylase (Homo sapiens) (UniProt Q13569);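 further: human TDG cleavage of quenched duplex DNA oligonucleotides coupled to APE1, strand release read as fluorescence at 594 nm, inhibition of TDG activity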
Chain of G/T mismatch-specific thymine DNA glycosylase (Homo sapiens) (Q13569 whole entry): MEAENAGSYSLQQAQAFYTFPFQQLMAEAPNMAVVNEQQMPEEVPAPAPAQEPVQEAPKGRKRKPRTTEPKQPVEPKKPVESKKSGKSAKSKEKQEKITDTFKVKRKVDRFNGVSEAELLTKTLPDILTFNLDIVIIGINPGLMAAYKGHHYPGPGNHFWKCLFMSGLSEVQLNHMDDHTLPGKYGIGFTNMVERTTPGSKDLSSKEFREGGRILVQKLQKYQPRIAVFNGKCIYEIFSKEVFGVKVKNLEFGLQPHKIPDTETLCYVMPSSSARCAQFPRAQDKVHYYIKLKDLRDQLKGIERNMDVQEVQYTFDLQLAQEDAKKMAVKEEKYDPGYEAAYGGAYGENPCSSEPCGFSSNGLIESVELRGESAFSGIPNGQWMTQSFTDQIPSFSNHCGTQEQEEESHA
Description: Inhibition of TDG by quantifying inhibition of TDG-mediated cleavage and dissociation of quenched duplex DNA oligonucleotides, measured as fluorescence at 594 nm. To generate a functional strand incision and increase turn-over this assay is coupled to APE1.

[8] = molecular target: Uracil-DNA glycosylase (Homo sapiens) (UniProt P13051);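 further: UNG excision on a quenched double-stranded DNA oligo probe, with APE1 added for strand incision and turnover, read as fluorescence at 594 nm as strands separate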
Chain of Uracil-DNA glycosylase (Homo sapiens) (P13051 whole entry): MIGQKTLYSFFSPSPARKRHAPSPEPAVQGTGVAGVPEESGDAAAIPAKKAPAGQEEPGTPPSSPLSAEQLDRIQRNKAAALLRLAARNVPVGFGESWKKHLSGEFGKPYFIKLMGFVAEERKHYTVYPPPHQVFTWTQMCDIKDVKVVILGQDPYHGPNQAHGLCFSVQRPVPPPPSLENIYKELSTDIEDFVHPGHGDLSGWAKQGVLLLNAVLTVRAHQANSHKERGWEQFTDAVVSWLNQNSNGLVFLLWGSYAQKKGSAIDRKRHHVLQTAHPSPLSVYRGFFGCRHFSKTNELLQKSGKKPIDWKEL
Description: Inhibition of UNG by quantifying inhibition of UNG-mediated cleavage and dissociation of quenched duplex DNA oligonucleotides, measured as fluorescence at 594 nm. To generate a functional strand incision and increase turn-over this assay is coupled to APE1.

Structure (SMILES) | inhibition [1] [%] | inhibition [2] [%] | inhibition [3] [%] | inhibition [4] [%] | inhibition [5] [%] | inhibition [6] [%] | inhibition [7] [%] | inhibition [8] [%]
COc1cc(-c2cncc(-c3ccc(N4CCN(C(C)C)CC4)cc3)c2C)cc(F)c1C(=O)N1CCCC1 | 0.55 | 3.31 | -8.65 | 0.0872 | 12.1 | 28.7 | 47.2 | 7.27
CNC(=N)NCCC[C@H](NC(=O)[C@H](CC(C)C)NC(=O)NNC(=O)[C@H](Cc1ccccc1)NC(=O)[C@H](CO)NC(=O)[C@H](CC(N)=O)NC(=O)[C@@H](Cc1ccncc1)NC(=O)[C@H](N)Cc1ccc(O)cc1)C(=O)N[C@@H](Cc1ccccc1)C(N)=O (H-[dY][d4Pal]NSF[azaGly]L[Arg(Me)]F-NH2) | 54 | -4.68 | 6.4 | -1.29 | -3.16 | 19.5 | 52.5 | 6.61
CNC(=O)c1cc(C(=O)N[C@H]2[C@@H]3COC[C@@H]32)cc2c1O[C@H](CF)[C@H]2c1ccccc1 | 47.2 | -1.35 | 5.12 | -3.26 | 4.16 | 8.89 | 40.6 | 2.78
COc1ccc2c(O[C@@H]3C[C@H]4C(=O)N[C@]5(C(=O)O)CC5/C=C\CCCCC[C@H](NC(=O)OC5CCCC5)C(=O)N4C3)cc(-c3csc(NC(=O)C(C)C)n3)nc2c1C (stereo partly drawn) | 33.3 | -5.14 | 1.3 | 6.6 | 55.8 | -6.44 | 38.5 | 5.79
O=C(NCc1ncc(C(F)(F)F)cc1Cl)c1ccc2c(c1)C1(CCS(=O)(=O)CC1)[C@@H](C1CC1)N2S(=O)(=O)c1ccc(F)cc1 | 54.9 | -9.38 | -9.67 | -8.52 | 3.62 | 6.37 | 36.9 | -1.13
Cc1cn([C@H](C)CC#N)c(=O)c2cc(Cn3nc(C(F)F)cc3Cl)nn12 | 55.5 | -8.77 | -2.27 | -5.89 | -5.53 | 9.99 | 31.2 | 1.83
C[C@H](NC(=O)Nc1cc2[nH]ncc2c(CO)n1)c1ccccn1 | 22.3 | -8.95 | -4.78 | -0.801 | 0.354 | 21.2 | 51.6 | 4.22
CCn1c(CNC(=O)c2ncc(C)nc2N)[n+](CC)c2ccc(C(=O)N(C)CCN(C)C)cc21 | 47.5 | -4.53 | 1.3 | -6.55 | 14.2 | 1.28 | 100 | -0.563
COC(=O)/C=C/c1cccc(N(Cc2ccc(-c3ccc(N(C)C)cc3)cc2)C(=O)C2CCCCC2)c1 | 53.7 | -4.23 | 3.34 | 7.26 | 7.66 | -4.57 | 44.3 | -3.03
O=C1NCN(c2ccccc2)C12CCN(CC1COc3ccccc3O1)CC2 (stereo not drawn) | -3.04 | -5.84 | -3.23 | 2.66 | -5.28 | 1.76 | 2.98 | -8.19
Cc1cccc(CN2CCN(C(c3ccccc3)c3ccc(Cl)cc3)CC2)c1 (stereo not drawn) | 55.1 | 5.62 | 8.7 | 4.63 | 3.33 | 10.2 | 31.2 | 5.91
